Experiment [1] has as its system SMN2 mRNA. In words: Splicing RT-qPCR gene panel, SMN2 canonical junction (CJ) mRNA. The format is cell-based. The conditions noted are these: Homo sapiens; Table 8; larger gene panel, decrease in CJ mRNA levels. The procedure, abridged: (§1)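 Junction-specific RT-qPCR read-out: CJ marks canonical transcript, AJ marks alternative-exon inclusion, each normalized to GAPDH, GUSB or PPIA. Cells (A673 or K562) were dosed for 24 h with compound up to 10 uM final in 11 3-fold steps. RQ from 2^(−ΔΔCt) against DMSO became percentage response.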
On the technique in general: Real-time PCR tracks product formation cycle by cycle.

Experiment [2] relates to HiBiT-tagged MYB protein. In words: HiBiT protein abundance assay, MYB (K562 HiBiT knock-in cells). The conditions noted are these: 24 hours treatment. Format: cell-based, human. As to the method:
(§2) Compounds described herein were used to screen for effects on quantitative protein abundance using a HiBit assay system (Promega). Quantitative protein abundance was determined by measuring the protein levels of HiBit-tagged protein targets expressed in cell culture via luminescence using the Nano-Glo HiBiT Lytic Detection System, which uses a split complementation assay format to reconstitute NanoBiT enzyme to generate a luminescent signal. A protein abundance assay was developed such that endogenous protein targets could be modified with the HiBiT peptide tag and their abundance could be assessed after compound treatment. Briefly, K562 cell lines containing a HiBiT-modification were treated with various compounds described herein (e.g., compounds of Formulas (I), or (II)). After treatment for 24 hours, the protein abundance of a specific target was determined by measuring luminescence.
(§3) Cells were maintained in IMDM with 10% FBS. Before the assay, cells were diluted with […] growth media (IMDM+[…] media) and were seeded in a 384-well plate at a density of 10000 cells/well (for each cell line listed in Table 6). Each compound was prepared as a 10-point 3-fold serial dilution in DMSO with the top dose at a final concentration of […] in the well. Unmodified K562 cells were added at the previously specified density with DMSO to serve as an assay baseline and positive control (PC) and DMSO only with the respective modified cell lines was added to the negative control (NC) columns. Final DMSO concentration was kept at or below 0.25%. Treated cell plates were placed in an incubator at 37° C. with […] for 24 hours. After 24 hours, 25 μL of Complete HiflitLytic reagent was added to each well at room temperature (e.g. one plate requiring 10 mL Lytic Buffer, 100 μL LgBiT Protein, 200 μL Lytic Substrate), shaken for 5 minutes at 600 RPM, then left to sit for 10 minutes for signal to stabilize before reading on a Spark Cyto plate reader (Tecan) with a 500 ms measurement time.
(§4) To determine compound effects on protein abundance of each target in Table 6, the percent response for each respective cell line was calculated at each compound concentration as follows:
(§5) For the normalized response at each concentration, a four-parameter logistical regression was fit to the data and the response was interpolated at the 50% value to determine a concentration for protein abundance at 50% (IC50) the untreated control.

The test system of experiment [3] is K562 (human chronic myelogenous leukemia) cells. In words: Cell viability, Cell Titer Glo 2.0 assay, K562 cells. Format: cell-based. The conditions noted are these: 72 hours. As to the method:
Compounds described herein were screened for toxicity in K562 (human chronic myelogenous leukemia) and SH-SY5Y (human neuroblastoma) cells using a Cell Titer Glo 2.0 assay.
Cells were plated at 500 cells/well (K562 cells) in 45 μL of IMDM supplemented with 10% FBS in a 384-well opaque plate. Wells containing only medium were used as a blank control. Test compounds (e.g., compounds of Formula (I), (III), (IV), (V), or (VI)) were first serially diluted in DMSO then diluted 1:100 with IMDM+10% FBS. The final concentration of DMSO was 0.1% in each well. The cells were incubated for 72 hours at 37° C. and 5% CO2 before assaying with Cell Titer Glo 2.0 reagent.

For experiment [4], the system named is HiBiT-tagged HTT protein. The experiment can be described thus: HiBiT protein abundance assay, HTT (K562 HiBiT knock-in cells). The conditions noted are these: 24 hours treatment. Format: cell-based, human. As to the method:
as §2, §3, §4, §5
(In general: With HiBiT, luminescence reflects the tagged protein that the partner subunit can reach.)

The test system of experiment [5] is HTT mRNA. In words: Splicing RT-qPCR assay, HTT canonical (CJ) and alternative (AJ) junction mRNA. Format: cell-based. The conditions noted are these: Homo sapiens; for EC50: AC50 = 50% response in AJ mRNA increase. An outline of the steps: as §1
For experiment [6], the system named is Target C. In words: HiBiT protein abundance assay, Target C (K562 HiBiT knock-in cells). The conditions noted are these: 24 hours treatment. Format: cell-based, human. Here is the method:
• Promega Nano-Glo HiBiT Lytic Detection System (cat #N3030) • Corning 384-well TC-treated microplates (cat #3570) • Synthego Engineered Cells Knock-In Clones
as §3, §4, §5

Experiment [7] concerns MYB mRNA. The experiment can be described thus: Splicing RT-qPCR assay, MYB canonical (CJ) and alternative (AJ) junction mRNA. The following applies: Homo sapiens; for EC50: AC50 = 50% response in AJ mRNA increase. Format: cell-based. The procedure, abridged:
as §1

Experiment [8] deals with Target C mRNA. In words: Splicing RT-qPCR gene panel, Target C canonical junction (CJ) mRNA. The format is cell-based. The following applies: Homo sapiens; Table 8; larger gene panel, decrease in CJ mRNA levels. An outline of the steps:
as §1

Where [9] appears, read: Table 7, RT-qPCR, A673 or K562 cells, 24 hours treatment.
Setting [10] is: Table 7, IC50 = 50% response in CJ mRNA decrease, RT-qPCR, A673 or K562 cells, 24 hours treatment, read-out: HTT CJ.
[11] abbreviates: Table 8, larger gene panel, decrease in CJ mRNA levels, read-out: HTT CJ IC50.
Where [12] appears, read: Table 7, IC50 = 50% response in CJ mRNA decrease, RT-qPCR, A673 or K562 cells, 24 hours treatment, read-out: MYB CJ.
[13] abbreviates: Table 8, larger gene panel, decrease in CJ mRNA levels, read-out: MYB CJ IC50.

Like-named read-outs stand apart in the source and are kept apart here.

As a reminder, the EC50 is the midpoint of the concentration-response curve. A low value points to a more potent agent. Turning to `Cn1cc2cc(-n3cc4cc(C5CCNCC5)sc4n3)cc(F)c2n1` [Compound 104, 7-fluoro-2-methyl-5-[5-(piperidin-4-yl)thieno[2,3-c]pyrazol-2-yl]indazole], the IC50 in experiment [1] was less than 0.1 µM; in experiment [2], 0.1 to 1 µM; in experiment [3], 0.1 to 1 µM; in experiment [4], less than 0.1 µM; in experiment [5] (setting [10]), less than 0.1 µM; in experiment [5] (setting [11]), 0.1 to 1 µM. For the same molecule, the IC50 in experiment [6], in experiment [7] (setting [12]), in experiment [7] (setting [13]) and in experiment [8] was 0.1 to 1 µM in each case. For the same molecule, the EC50 in experiment [5] (setting [9]) and in experiment [7] (setting [9]) was 0.1 to 1 µM in each case.
As to `Cc1cn2cc(-c3cc4cn(C5CCNCC5)nc4s3)nc(C)c2n1` [Compound 228], the IC50 in experiment [1] was 0.1 to 1 µM; in experiment [2], 1 to 10 µM; in experiment [3], 1 to 10 µM; in experiment [4], 0.1 to 1 µM; in experiment [5] (setting [10]) it was 0.1 to 1 µM; in experiment [5] (setting [11]) it was 0.1 to 1 µM. Further, the IC50 in experiment [6], in experiment [7] (setting [12]), in experiment [7] (setting [13]) and in experiment [8] was 1 to 10 µM throughout. Moreover, the EC50 in experiment [5] (setting [9]) is 0.1 to 1 µM; in experiment [7] (setting [9]), 1 to 10 µM.
`Cc1cn2nc(-n3cc4sc(N5CCC(NC(C)(C)C)C5)cc4n3)cc(C)c2n1` (stereo not drawn) [Compound 189, N-tert-butyl-1-(2-{2,8-dimethylimidazo[1,2-b]pyridazin-6-yl}thieno[3,2-c]pyrazol-5-yl) pyrrolidin-3-amine]: the IC50 in experiment [1] is 1 to 10 µM; in experiment [2], greater than 10 µM; in experiment [3], 1 to 10 µM; in experiment [4], greater than 10 µM; in experiment [5] (setting [10]), greater than 10 µM; in experiment [5] (setting [11]) it was greater than 10 µM. The IC50 in experiment [6], in experiment [7] (setting [12]), in experiment [7] (setting [13]) and in experiment [8] was greater than 10 µM each time. Further, the EC50 in experiment [5] (setting [9]) and in experiment [7] (setting [9]) was greater than 10 µM in each case.
With `Cc1cn2nc(-n3cc4cc(C5CCNCC5)sc4n3)nc2c(C)n1` [Compound 163, 4-(2-{6,8-dimethyl-[1,2,4]triazolo [1,5-a]pyrazin-2-yl}thieno[2,3-c]pyrazol-5-yl)piperidine], the IC50 in experiment [1], in experiment [2], in experiment [3], in experiment [4], in experiment [5] (setting [10]) and in experiment [5] (setting [11]) was 1 to 10 µM each time. Besides, the IC50 in experiment [6], in experiment [7] (setting [12]), in experiment [7] (setting [13]) and in experiment [8] was 1 to 10 µM throughout. Besides, the EC50 in experiment [5] (setting [9]) and in experiment [7] (setting [9]) was 1 to 10 µM throughout.
In the case of `COc1c(-c2cc3cn(C4CCNCC4)nc3s2)nn2cc(C)nc(C)c12` [Compound 219, 4-(5-{3-methoxy-4,6-dimethylpyrazolo[1,5-a]pyrazin-2-yl}thieno[2,3-c]pyrazol-2-yl) piperidine], the IC50 in experiment [1] is 1 to 10 µM; in experiment [2], greater than 10 µM; in experiment [3] it was 1 to 10 µM; in experiment [4] it was greater than 10 µM; in experiment [5] (setting [10]), greater than 10 µM; in experiment [5] (setting [11]), greater than 10 µM. The IC50 in experiment [6], in experiment [7] (setting [12]), in experiment [7] (setting [13]) and in experiment [8] was greater than 10 µM in each case. Moreover, the EC50 in experiment [5] (setting [9]) and in experiment [7] (setting [9]) was greater than 10 µM in each case.
Take `Cn1cc2cc(-c3cc4cn([C@@H]5CCNC[C@H]5O)nc4s3)cc(F)c2n1` [Compound 273]: the IC50 in experiment [1] is 0.1 to 1 µM; in experiment [2], greater than 10 µM; in experiment [3] it was 1 to 10 µM; in experiment [4], 1 to 10 µM; in experiment [5] (setting [10]), greater than 10 µM; in experiment [5] (setting [11]), greater than 10 µM. The IC50 in experiment [6], in experiment [7] (setting [12]), in experiment [7] (setting [13]) and in experiment [8] was greater than 10 µM throughout. Further, the EC50 in experiment [5] (setting [9]) and in experiment [7] (setting [9]) was 1 to 10 µM each time.
As to `Cc1cn2nc(-c3cc4cn(C5CCNCC5)nc4s3)cc(C)c2n1` [Compound 162, 4-(5-{2,8-dimethylimidazo[1,2-b]pyridazin-6-yl}thieno[2,3-c]pyrazol-2-yl)piperidine], the IC50 in experiment [1] is less than 0.1 µM; in experiment [2] it was 0.1 to 1 µM; in experiment [3] it was 1 to 10 µM; in experiment [4], less than 0.1 µM; in experiment [5] (setting [10]), 0.1 to 1 µM; in experiment [5] (setting [11]) it was 0.1 to 1 µM. In addition, the IC50 in experiment [6], in experiment [7] (setting [12]), in experiment [7] (setting [13]) and in experiment [8] was 0.1 to 1 µM each time. Further, the EC50 in experiment [5] (setting [9]) and in experiment [7] (setting [9]) was 0.1 to 1 µM each time.
Take `Cn1cc2c(F)cc(-n3cc4sc(C5CCNCC5)cc4n3)cc2n1` [Compound 175]: the IC50 was greater than 10 µM in experiment [1]; 1 to 10 µM in experiment [2]; 1 to 10 µM in experiment [3]; 1 to 10 µM in experiment [4]; greater than 10 µM in experiment [5] (setting [10]); greater than 10 µM in experiment [5] (setting [11]). Moreover, the IC50 is 1 to 10 µM in experiment [6], greater than 10 µM in experiment [7] (setting [12]), greater than 10 µM in experiment [7] (setting [13]) and greater than 10 µM in experiment [8]. The EC50 in experiment [5] (setting [9]) and in experiment [7] (setting [9]) was greater than 10 µM in each case.
As to `Cn1cc2cc(-c3nc4cn(C5CCNCC5)nc4s3)cc(F)c2n1` [Compound 1100, 7-fluoro-2-methyl-5-[2-(piperidin-4-yl)pyrazolo[4,3-d][1,3]thiazol-5-yl]indazole], the IC50 is less than 0.1 µM in experiment [1]; 0.1 to 1 µM in experiment [2]; 1 to 10 µM in experiment [3]; less than 0.1 µM in experiment [4]; 0.1 to 1 µM in experiment [5] (setting [10]); 0.1 to 1 µM in experiment [5] (setting [11]). Also, the IC50 in experiment [6], in experiment [7] (setting [12]), in experiment [7] (setting [13]) and in experiment [8] was 0.1 to 1 µM in each case. Moreover, the EC50 in experiment [5] (setting [9]) and in experiment [7] (setting [9]) was 0.1 to 1 µM in each case.
On to `Cn1cc2cc(-c3cc4cn(C5=CCOCC5)nc4s3)cc(F)c2n1` [Compound 177], for which the IC50 in experiment [1], in experiment [2], in experiment [3], in experiment [4], in experiment [5] (setting [10]) and in experiment [5] (setting [11]) was greater than 10 µM each time. Moreover, the IC50 in experiment [6], in experiment [7] (setting [12]), in experiment [7] (setting [13]) and in experiment [8] was greater than 10 µM each time. The concentration for a half-maximal effect (EC50) in experiment [5] (setting [9]) and in experiment [7] (setting [9]) was greater than 10 µM each time.

For the origin of these results see patent US20250109140A1, “5-[5-(PIPERIDIN-4-YL)THIENO[3,2-C]PYRAZOL-2-YL]INDAZOLE DERIVATIVES AND RELATED COMPOUNDS AS MODULATORS FOR SPLICING NUCLEIC ACIDS AND FOR THE TREATMENT OF PROLIFERATIVE DISEASES” (REMIX THERAPUTICS INC., priority 2022, published 2025).
